One may read the IC50 as the concentration needed to halve the response being measured. Higher therefore signals weaker potency. One may read the CC50 as the concentration at which the toxic effect on the cells reaches its halfway point. A lower CC50 goes with harm at low concentration. The MIC is the lowest concentration that inhibits growth of the organism.

For one data set, the system named is A. fumigatus. Briefly: Antifungal assay against A. fumigatus (optical density at 630 nm). The conditions noted are these: Aspergillus fumigatus, 40 h, Sabouraud, 30° C., commercial FFA. The format is cell-based. The procedure: (§1) Fractionation of Blackcurrant Seed Oil. Journal of the American Oil Chemists Society 65: 755-760). […] Under constant stirring, the mixture was heated to 75° C., or until it became clear, and then cooled slowly to 2° C. After completion of urea crystallization at 2° C. (15 h), the UFFA enriched methanol phase was separated from the urea crystals by centrifugation (5 min) at 1000×g. […] Yields were determined gravimetrically. […] UV detection was used to monitor effluent at 215 nm. Water (10 ml) was added to each of the 45 collected HPLC fractions, and they were then extracted three times with hexane (3×10 ml). […] Antifungal assay using commercial FFA were done in quadruplicates. The antifungal activity was evaluated in 96-well microtiter plates (Costar 3595) using Sabouraud as incubating medium for A. fumigatus and dextrose-free Sabouraud for C. albicans. Spores of A. fumigatus (Jeanine Joly, Université de Montréal) were germinated at 25° C. on slant agar Sabouraud media. They were harvested by washing vigorously slant cultures with 5 ml of 0.9% NaCl. Coarse debris were removed by filtrating the Aspergillus spores suspension through a sterile cotton plugs inserted into a Pasteur pipet. Monodisperse spores suspensions were obtained following brief sonications in a water bath sonicator (Branson 1210). […] Blastospores of the C. albicans SC5314 strain were prepared as for germination inhibition assays (see above). […] Wells were washed three times with Sabouraud before optical reading.

Data set [1] concerns C. albicans SC5314 strain. Briefly: Antifungal assay against C. albicans (optical density at 630 nm). It is filed as cell-based, Candida albicans. The conditions noted are these: Candida albicans, SC5314, 40 h, dextrose-free Sabouraud, 37° C., commercial FFA. Here is the method:
as §1

A short description of data set [2]: Cytotoxicity assay (LDH release). The conditions noted are these: human. The procedure:
Cytotoxicity was evaluated using Peripheral Blood Mononuclear cells (PBMC) of volunteers donors (Royal Victoria Hospital, Montreal). These cells were purified by the ficoll-Paque PLUS according to the manufacturer (Amersham-Bioscience). PBMC were used at a density of 100 000 cells/ml in RPMI 1640 (Sigma) supplemented with 10% heat-inactivated fetal bovine serum, 0.3 g/L of L-glutamine, 2 g/L sodium carbonate, 100 U/ml of penicillin and 100 μg/ml of streptomycin (Sigma). Assays were done in 96-well microtiter plates (Costar 3595) and the cytotoxicity was evaluated after 24 hours of incubation at 37° C. in a 5% CO2 atmospheric incubator using the LDH Cytotoxicity detection kit, according to the manufacturer (Roche Diagnostic). […] FFA were diluted in ethanol (96%) and no more than 1% ethanol (final concentration) was used in assays. Ethanol (1%) was used as negative control.
This method measures the release of lactate dehydrogenase (LDH) from the cytosol of damaged cells into the supernatant (Roche Diagnostic).
A general note: Release of lactate dehydrogenase indicates damage to the cell membrane.

The subject of data set [3] is Candida albicans SC5314 strain. Briefly: Germination inhibition assay (antihyphal growth activity). It is filed as cell-based. The following applies: for activity at inhibiting C. albicans germination: individual commercial free fatty acids, highest concentration used 81 μM. Here is the method: The Candida albicans SC5314 strain (Fonzi, W. A. and Irwin, M. Y. 1993. Isogenic strain construction and gene mapping in Candida albicans. Genetics 134: 717-728.) was used to investigate the antihyphal activity of whey cream lipids. This strain was routinely grown as yeast cells at 30° C. in YPD medium (1% yeast extract, 2% peptone, 2% dextrose). Germination was induced by incubating cells in dextrose-free Sabouraud (Difco; Joshi, K. R., Gavin, J. B., and Bremner, D. A. 1973. The formation of germ tubes by Candida albicans in various peptone media. Sabouraudia. 11: 259-262.) at 37° C. in 96-wells microtiter plates (Costar 3595). Briefly, cells from fresh YPD cultures were harvested and washed twice with sterile water. Washed cells were suspended in dextrose-free Sabouraud at a density of 5×10^3 cells/ml and then immediately distributed to microtiter wells containing an equal volume of dextrose-free Sabouraud supplemented with different concentrations of lipids. After 15 h incubation at 37° C. in an atmospheric incubator without agitation, cells were washed and fixed with a fresh 1% formaldehyde solution. The ability of lipids to inhibit germination was determined by microscopic observations.

The test system of data set [4] is Candida albicans ZK3379 strain (CAI-4 HWP1-lacZ). Briefly: C. albicans HWP1-lacZ beta-galactosidase and XTT assays (kinetics of germination inhibition in hyphae inducing media). It is filed as cell-based. The following applies: for germ tube emergence and elongation: all inducing conditions tested (dextrose-free Sabouraud, Lee's, Spider, HFM7), 0-6 h (FIG. 2). The procedure: Candida albicans ZK3379 strain (CAI-4 HWP1-lacZ; Hogan, D A, Vik A, Kolter R (2004). A Pseudomonas aeruginosa quorum-sensing molecule influences Candida albicans morphology. Mol Microbiol 54: 1212-1223.) was used for beta-galactosidase and XTT assays. Cells from this strain were grown in YPDA at 30° C. to a density of about 1×10^8 cells/ml (hemacytometer). These late exponentially growing cells were then washed twice with water and kept on ice until used. Germination was induced by incubating cells (final density of 5×10^5 cells/ ml) at 37° C. in 2.5 ml of either dextrose-free Sabouraud (Joshi et al., 1973), Lee's (Lee K L, Buckley H R, Campbell C C (1975). An amino acid liquid synthetic medium for the development of mycelial and yeast forms of Candida albicans. Sabouraudia 13: 148-153, Spider (Liu H, Kohler J, Fink Gr (1994). Suppression of hyphal formation in Candida albicans by mutation of a STE12 homolog. Science 266: 1723-1726 or Hypha-Forming Media (Biswas S K, Yokoyama K, Kamei K, Nishimur K, Miyaji M (2001) Inhibition of hyphal growth of Candida albicans by activated lansoprazole, a novel benzimidazole proton pump inhibitor Med Mycol 39: 283-285.), supplemented with FFAs. All lipids were dissolved in ethanol. Assays were performed in duplicate in 24-wells mictotiter plates (Costar 3526) without agitation. After appropriate incubation times (i.e. 0, 2, 4 or 6 h), microtiter plates were centrifuged for 5 min at 2000 rpm (Jouan inc. CR3i) and supernatents, discarded. XTT assays were done immediately and essentially as described (Honraet K, Goetghebeur E, Nelis H J (2005). Comparison of three assays for the quantification of Candida biomass in suspension and CDC reactor grown biofilms. J Microbiol Methods 63: 287-295). For beta-galactosidase assays, microtiter plates were frozen at −80° C. and processed later as described (Kippert F (1995). A rapid permeabilization procedure for accurate quantitative determination of beta-galactosidase activity in yeast cells. FEMS Microbiol Lett 128: 201-206; Hogan et al., 2004) but directly in microtiters plates. Absorbances were measured in 96-well microtiters plates using a microtiter plate reader (Microplate Reader MR600), equipped with filters of 410 nm (beta-galactosidase) and 490 nm (XTT), respectively.
As inhibition of germination of C. albicans by molecules could be the result of early and/or late blocking events, a more comprehensive analysis of the activity of free fatty acids was performed using multiple time points and other germ tube inducing media. Therefore, germination was monitored at 0, 2, 4 and 6 h in dextrose-free Sabouraud, Lee's, Spider and HFM7 (i.e. serum) media using the C. albicans HWP1-lacZ assay: beta-galactosidase measurements should reflect the morphological change from yeast cells to hyphal growth (Hogan et al., 2004). beta-galactosidase results were normalized using the XTT assay (Honraet et al., 2005) to correct for biomass increase. Microscopic observations of cells after 6 h incubation are also presented for each inducing conditions and correlated with beta-galactosidase data (FIG. 2).
Background: Tetrazolium assays rely on reduction of a dye to a coloured formazan, in cell work by metabolically active cells.

Where [5] appears, read: Candida albicans, SC5314, commercial free fatty acids, complete inhibition of germination, 15 h, 37° C., gravimetrical quantification, read-out: MIC, antihyphal growth activity of individual free fatty acids.
Where [6] appears, read: Candida albicans, SC5314, same MIC in μg/ml (in brackets), commercial free fatty acids, gravimetrical quantification, read-out: MIC, antihyphal growth activity of individual free fatty acids.
[7] abbreviates: commercial free fatty acids, complete inhibition of germination, 15 h, 37° C., gravimetrical quantification, read-out: MIC, antihyphal growth activity of individual free fatty acids.
[8] abbreviates: Candida albicans, SC5314, 15 h, read-out: MIC, antihyphal growth activity of individual free fatty acids.
[9] abbreviates: Candida albicans, SC5314, read-out: MIC, antihyphal growth activity of individual free fatty acids.

Read-outs that look alike come from different tables or passages of the source.

In the case of `CC(C)CCCCCCCCCC(=O)O` [12-methyldodecanoic acid (C13:0 i)], the figures for the IC50 (in the data set on A. fumigatus; in data set [1]) were ~283 µM and ~49 µM, respectively. This molecule also yielded a CC50 at 24 h in data set [2] of 70 µM.

In the case of `CCCCCC/C=C\CCCCCCCC(=O)O` [16:1(n-7), palmitoleic acid], the MIC in data set [3] (setting [5]) is 9 µM; in data set [3] (setting [6]) it was 2.29 µg/mL; in data set [3] (setting [7]) it was 9 µM. Also, in data set [4] (Lee's medium, data not shown), the “toxicity for C. albicans blastospores” value is “toxic”. Also, the “appearance of germ tubes” value in data set [4] (Spider and HFM7 media) is given as “partially inhibited the appearance of germ tubes”.

For `CCCCCCCCCCCCCCCCCC(=O)O` [18:0, stearic acid, reference compound], the MIC in data set [3] (setting [8]) is > 81 µM; in data set [3] (setting [9]), > 23 µg/mL. Further, the “activity at inhibiting C. albicans germination” value in data set [3] was “inactive”.

For the molecule `CCCCC/C=C\C/C=C\C/C=C\C/C=C\CCCC(=O)O` [20:4(n-6), arachidonic acid], the MIC in data set [3] (setting [5]) turned out to be 27 µM; in data set [3] (setting [6]), 8.22 µg/mL; in data set [3] (setting [7]) it was 27 µM. Moreover, the “appearance of germ tubes” value was “partially inhibited the appearance of germ tubes” in data set [4] (Spider and HFM7 media); “strongly inhibited the appearance of germ tubes” in data set [4] (dextrose-free Sabouraud and Lee's inducing media).

As for `CCCCCCCC/C=C\CCCCCCCC(=O)O` [18:1(n-9), oleic acid, reference compound], the MIC in data set [3] (setting [8]) is > 81 µM; in data set [3] (setting [9]), > 18.5 µg/mL. In data set [3], the “activity at inhibiting C. albicans germination” value is listed as “no or weak activity”. Moreover, the “activity against the germination of C. albicans” value in data set [4] (all inducing media but HFM7) is listed as “weak or no activity”.

Take `CCCCCCCCCCCCCCCC(=O)O` [16:0, palmitic acid, reference compound]: the MIC is > 81 µM in data set [3] (setting [8]) and > 20.8 µg/mL in data set [3] (setting [9]). The “activity at inhibiting C. albicans germination” value in data set [3] was “inactive”.

As for `CCCCCCCCCCCCCC(=O)O` [14:0, myristic acid, reference compound], the MIC is > 81 µM in data set [3] (setting [8]) and > 18.5 µg/mL in data set [3] (setting [9]). For the same molecule, in data set [3], the “activity at inhibiting C. albicans germination” value was “inactive”.

On to `CCCCCCCCCCCCCCCCC(=O)O` [17:0, heptadecanoic acid, reference compound], for which the MIC in data set [3] (setting [5]) is > 81 µM; in data set [3] (setting [6]) it was > 21.9 µg/mL. Further, in data set [3], the “activity at inhibiting C. albicans germination” value was “inactive”.

As to “conjugated linoleic acid [18:2(CLA 9c-11t)]”, in data set [3] (setting [7]), the MIC is on record as 9 µM. Besides, the “MIC, antihyphal growth activity of individual free fatty acids” value in data set [3] (same MIC in μg/ml (in brackets), commercial free fatty acids, gravimetrical quantification) amounted to 2.52 µg/mL. Besides, the “germ tube emergence and elongation” value in data set [4] is given as “produced germ tubes (2-4 h), but their further elongation was blocked”.

As for `CCCCC/C=C\C/C=C\CCCCCCCC(=O)O` [18:2(n-6), linoleic acid], the MIC was 81 µM in data set [3] (setting [5]), 22.7 µg/mL in data set [3] (setting [6]) and 81 µM in data set [3] (setting [7]). In addition, in data set [4], the “germ tube emergence and elongation” value is reported as “produced germ tubes (2-4 h), but their further elongation was blocked”.

Take `CCCCCCCCCCCCCCC(=O)O` [15:0, pentadecanoic acid, reference compound]: the MIC in data set [3] (setting [5]) was > 81 µM; in data set [3] (setting [6]) it was > 19.6 µg/mL. Moreover, the “activity at inhibiting C. albicans germination” value in data set [3] was “inactive”.

(Values after US20080075786A1, “Antimicrobial agents derived from cream” (Universite de Montreal, priority 2006, published 2008).)
